One assay concerns the target Mu-type opioid receptor (Cavia porcellus, UniProt P97266). The assay can be described thus: Inhibition of [3H]DAMGO binding to Opioid receptor mu 1 of guinea pig brain.
Assay [1] concerns the target Kappa-type opioid receptor (Cavia porcellus, UniProt P41144). Nature of the assay: Inhibition of [3H]- U 69593 from Opioid receptor kappa 1 of guinea pig brain.

Square brackets hold non-standard residues; d marks the D form. Peptide text beside a SMILES is read from it. Ala(4-thiazolyl) = N[C@@H](Cc1cscn1)C(=O)O; 2Pal = N[C@@H](Cc1ccccn1)C(=O)O; 3Pal = N[C@@H](Cc1cccnc1)C(=O)O; 2Thi = N[C@@H](Cc1cccs1)C(=O)O

Chain of Kappa-type opioid receptor (P41144 whole entry): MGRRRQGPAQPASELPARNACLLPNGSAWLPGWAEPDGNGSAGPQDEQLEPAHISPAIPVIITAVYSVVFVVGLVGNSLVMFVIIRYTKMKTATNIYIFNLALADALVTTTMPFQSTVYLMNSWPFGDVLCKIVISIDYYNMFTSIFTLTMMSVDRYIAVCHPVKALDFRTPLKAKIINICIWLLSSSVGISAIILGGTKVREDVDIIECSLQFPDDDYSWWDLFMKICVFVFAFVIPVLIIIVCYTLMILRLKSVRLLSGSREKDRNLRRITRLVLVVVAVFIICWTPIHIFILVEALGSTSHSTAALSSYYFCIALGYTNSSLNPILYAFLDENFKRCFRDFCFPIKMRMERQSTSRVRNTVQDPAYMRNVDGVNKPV
Chain of Mu-type opioid receptor (P97266 whole entry): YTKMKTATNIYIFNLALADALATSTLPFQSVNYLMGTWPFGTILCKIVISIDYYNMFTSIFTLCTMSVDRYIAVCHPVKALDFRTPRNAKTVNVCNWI

Usually Ki stands for a dissociation constant, usually derived from enzyme kinetics or from competition with a known ligand. A higher Ki goes with lower affinity. Consider `Cc1ccc(C[C@H](NC(=O)[C@H](C)NC(=O)[C@@H](N)Cc2ccc(O)cc2)C(=O)N[C@@H](CC(=O)O)C(=O)N[C@H](C(=O)N[C@H](C(=O)NCC(N)=O)C(C)C)C(C)C)cc1`, for which the Ki (on Mu-type opioid receptor; in assay [1]) was above 10 µM in each case.

Turning to `CC(C)[C@H](NC(=O)[C@H](CC(=O)O)NC(=O)[C@H](Cc1c(F)c(F)c(F)c(F)c1F)NC(=O)[C@H](C)NC(=O)[C@@H](N)Cc1ccc(O)cc1)C(=O)N[C@H](C(=O)NCC(N)=O)C(C)C`, the Ki (at Mu-type opioid receptor; in assay [1]) was above 10 µM in each case.

Regarding `CC(C)[C@H](NC(=O)[C@H](CC(=O)O)NC(=O)[C@H](Cc1ccc(F)cc1)NC(=O)[C@H](C)NC(=O)[C@@H](N)Cc1ccc(O)cc1)C(=O)N[C@H](C(=O)NCC(N)=O)C(C)C`, the inhibition constant Ki is 10 µM on Mu-type opioid receptor and above 10 µM in assay [1].

Take `CC(C)[C@H](NC(=O)[C@H](CC(=O)O)NC(=O)[C@H](Cc1ccccn1)NC(=O)[C@H](C)NC(=O)[C@@H](N)Cc1ccc(O)cc1)C(=O)N[C@H](C(=O)NCC(N)=O)C(C)C` (H-YA[2Pal]DVVG-NH2): the inhibition constant Ki on Mu-type opioid receptor is 2.93 µM; in assay [1] it was above 10 µM.

As for `CC(C)[C@H](NC(=O)[C@H](CC(=O)O)NC(=O)[C@H](Cc1cccs1)NC(=O)[C@H](C)NC(=O)[C@@H](N)Cc1ccc(O)cc1)C(=O)N[C@H](C(=O)NCC(N)=O)C(C)C` (H-YA[2Thi]DVVG-NH2), the Ki on Mu-type opioid receptor was 0.419 µM; in assay [1], above 10 µM.

On to `CC(C)[C@H](NC(=O)[C@H](CC(=O)O)NC(=O)[C@H](Cc1cccnc1)NC(=O)[C@H](C)NC(=O)[C@@H](N)Cc1ccc(O)cc1)C(=O)N[C@H](C(=O)NCC(N)=O)C(C)C` (H-YA[3Pal]DVVG-NH2), for which the figures for the Ki (on Mu-type opioid receptor; in assay [1]) were 10 µM and above 10 µM, respectively.

In the case of `CC(C)[C@H](NC(=O)[C@H](CC(=O)O)NC(=O)[C@H](Cc1cscn1)NC(=O)[C@H](C)NC(=O)[C@@H](N)Cc1ccc(O)cc1)C(=O)N[C@H](C(=O)NCC(N)=O)C(C)C` (H-YA[Ala(4-thiazolyl)]DVVG-NH2), the Ki is 2.8 µM at Mu-type opioid receptor and above 10 µM in assay [1].

Take `CC(NC(=O)[C@@H](N)Cc1ccc(O)cc1)C(=O)N[C@@H](Cc1ccccc1)C(=O)N[C@@H](CC(=O)O)C(=O)N[C@H](C(=O)N[C@H](C(=O)NCC(N)=O)C(C)C)C(C)C` (single isomer, unassigned) [DELTORPHIN C]: the figures for the inhibition constant (Ki) (at Mu-type opioid receptor; in assay [1]) were 0.677 µM and above 10 µM, respectively.

For the compound `CC(C)[C@H](NC(=O)[C@H](CC(=O)O)NC(=O)[C@H](Cc1cccc(F)c1)NC(=O)[C@H](C)NC(=O)[C@@H](N)Cc1ccc(O)cc1)C(=O)N[C@H](C(=O)NCC(N)=O)C(C)C` (stereo in doubt; 2a), the Ki on Mu-type opioid receptor was 0.411 µM; in assay [1], above 10 µM.

Take `CC(C)[C@H](NC(=O)[C@H](CC(=O)O)NC(=O)[C@H](Cc1cccc(F)c1)NC(=O)[C@H](C)NC(=O)[C@@H](N)Cc1ccc(O)cc1)C(=O)N[C@H](C(=O)NCC(N)=O)C(C)C` (stereo in doubt; 2b): the Ki on Mu-type opioid receptor is 3.48 µM; in assay [1], above 10 µM.

Take `Cc1c(C)c(C)c(C[C@H](NC(=O)[C@H](C)NC(=O)[C@@H](N)Cc2ccc(O)cc2)C(=O)N[C@@H](CC(=O)O)C(=O)N[C@H](C(=O)N[C@H](C(=O)NCC(N)=O)C(C)C)C(C)C)c(C)c1C` (stereo in doubt; 5a): the inhibitory constant (Ki) (at Mu-type opioid receptor; in assay [1]) was above 10 µM each time.

For the compound `Cc1c(C)c(C)c(C[C@H](NC(=O)[C@H](C)NC(=O)[C@@H](N)Cc2ccc(O)cc2)C(=O)N[C@@H](CC(=O)O)C(=O)N[C@H](C(=O)N[C@H](C(=O)NCC(N)=O)C(C)C)C(C)C)c(C)c1C` (stereo in doubt; 5b), the Ki (on Mu-type opioid receptor; in assay [1]) was above 10 µM each time.

With H-YAHDVVG-NH2, the inhibition constant Ki (on Mu-type opioid receptor; in assay [1]) was above 10 µM throughout.

The values are drawn from ChEMBL document CHEMBL1128290, “Opioid receptor binding requirements for the delta-selective peptide deltorphin. I: Phe3 replacement with ring-substituted and heterocyclic amino acids” (J Med Chem, 1995).
